These results are taken from article PMC3496014 (Journal of structural biology, 2012).

The test deals with PfAtg8 WT. The test is classed as binding, P. falciparum. The following applies: for WTRU/NOISE (response divided by overall noise, WT): pH 8.
[1] abbreviates: ratio of WT to K19E/K47E normalized response, hit threshold at least 1.5.

Like-named read-outs stand apart in the source and are kept apart here.

`O=c1ccc2cc(O)c(O)cc2o1` [Fragment 268, 6,7-dihydroxycoumarin]: the “(WTRU/NOISE)/(MutRU/NOISE)” value was 3.73 and the “WTRU/NOISE (response divided by overall noise, WT)” value is given as 1.79.

Take `Oc1ccc(O)c(O)c1` [Fragment 408, 1,2,4-benzenetriol]: the “WTRU/NOISE (response divided by overall noise, WT)” value came out at 5.33. Besides, the “(WTRU/NOISE)/(MutRU/NOISE)” value under setting [1] is given as 3.56.

Consider `Oc1cccc(O)c1O` [Fragment 410, 1,2,3-benzenetriol], for which the “WTRU/NOISE (response divided by overall noise, WT)” value was 22.79. Besides, the “(WTRU/NOISE)/(MutRU/NOISE)” value under setting [1] is on record as 6.19.

As to `O=[N+]([O-])c1ccc(Cl)c2nonc12` [Fragment 470, 4-chloro-7-nitrobenzofurazan], the “(WTRU/NOISE)/(MutRU/NOISE)” value under setting [1] is recorded as 1.52.

Turning to `O=[N+]([O-])c1ccc(O)c(O)c1` [Fragment 537, 4-nitrocatechol], the “WTRU/NOISE (response divided by overall noise, WT)” value is listed as 2.39. Moreover, the “(WTRU/NOISE)/(MutRU/NOISE)” value under setting [1] was found to be 1.90.

As for `O=C1CC(=O)c2ccccc21` [Fragment 792, 1,3-indandione], the “WTRU/NOISE (response divided by overall noise, WT)” value came out at 2.38. Besides, the “(WTRU/NOISE)/(MutRU/NOISE)” value under setting [1] is 2.15.
